Counter-ions that a name gives are not always drawn.
Key:
[1] = target: T1, proMMP9(20-445;ΔFnII) (SEQ ID NO:6) (Homo sapiens, UniProt P14780, DEL216-390); assay: ThermoFluor binding assay with proMMP9(20-445;ΔFnII); conditions: pH 7.0
T1 construct: start methionine (N); made in house; host or cells: E. coli BL21(DE3) RIL
T1 sequence (P14780 with tags, fused parts or gaps DEL216-390): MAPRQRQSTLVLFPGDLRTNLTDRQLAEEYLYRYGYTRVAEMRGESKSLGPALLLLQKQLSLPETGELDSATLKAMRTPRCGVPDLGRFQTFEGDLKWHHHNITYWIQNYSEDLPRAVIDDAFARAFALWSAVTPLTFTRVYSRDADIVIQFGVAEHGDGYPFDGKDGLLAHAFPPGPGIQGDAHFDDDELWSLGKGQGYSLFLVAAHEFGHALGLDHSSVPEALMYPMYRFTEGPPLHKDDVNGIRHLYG
How it was run: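 proMMP9(20-445;ΔFnII) at 2.8 μM with 50 μM 1,8-ANS in 50 mM HEPES pH 7.0, 100 mM NaCl, 0.001% Tween-20, 2.5 mM MgCl2, 300 μM CaCl2; compounds serially diluted in DMSO. Heated 40–90 °C at 1 °C/min, fluorescence read at 500±25 nm. Tm fit by standard equations; binding fit using DSC/TF-derived thermodynamic parameters.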

[2] = target: T2, proMMP9(67-444;ΔFnII) (SEQ ID NO:5) (Homo sapiens, UniProt P14780, DEL216-390); assay: ThermoFluor binding assay with proMMP9(67-444;ΔFnII); conditions: pH 7.0
T2 construct: start methionine (N); made in house; host or cells: E. coli BL21(DE3) RIL
T2 sequence (P14780 with tags, fused parts or gaps DEL216-390): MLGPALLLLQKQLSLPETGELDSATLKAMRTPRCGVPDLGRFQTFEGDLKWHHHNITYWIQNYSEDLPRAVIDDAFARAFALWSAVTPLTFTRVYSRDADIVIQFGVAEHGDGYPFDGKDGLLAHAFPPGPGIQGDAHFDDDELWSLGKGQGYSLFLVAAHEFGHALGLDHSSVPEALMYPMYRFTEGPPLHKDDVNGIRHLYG
How it was run: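 Thermal shift binding with 3.5 μM proMMP9(67-444;ΔFnII) and 50 μM 1,8-ANS in 50 mM HEPES pH 7.0, 100 mM NaCl, 2.5 mM MgCl2, 300 μM CaCl2, 0.001% Tween-20, with serially diluted compound. Heated 40 to 90° C at 1° C/min; fluorescence-derived Tm fitted using DSC/ThermoFluor thermodynamic parameters.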

[3] = target: T3, full-length proMMP9(1-707) (SEQ ID NO:1) (Homo sapiens, UniProt P14780, R574P); assay: proMMP9/MMP3 P126 Activation Assay; assay type: biochemical; conditions: 20 nM proMMP9, 20 nM MMP3, 80 min 37° C.
T3 construct: made in house; host or cells: HEK293 (proMMP9, secreted); E. coli (MMP3)
Procedure: The reaction volume was 50 μL. […] Reactivity of residual MMP3 towards P-126 substrate was minimal under these conditions.

[4] = target: proMMP13(1-268) (SEQ ID NO:7) (Homo sapiens, UniProt P45452); assay: ThermoFluor binding assay with proMMP13(1-268); parameters: 6xHis (C); made in house; conditions: pH 7.0
How it was run: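 Thermal shift binding with 3.5 μM protein and 25 μM 1,8-ANS in 50 mM HEPES pH 7.0, 100 mM NaCl, 0.001% Tween-20, 2.5 mM MgCl2, 300 μM CaCl2. Samples were heated 40 to 90 °C at 1 °C/min, fluorescence read at 500 nm. Tm shifts across an 11-point DMSO dilution series were fitted with DSC-derived thermodynamic parameters.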

T3 sequence (P14780 20-707 R574P): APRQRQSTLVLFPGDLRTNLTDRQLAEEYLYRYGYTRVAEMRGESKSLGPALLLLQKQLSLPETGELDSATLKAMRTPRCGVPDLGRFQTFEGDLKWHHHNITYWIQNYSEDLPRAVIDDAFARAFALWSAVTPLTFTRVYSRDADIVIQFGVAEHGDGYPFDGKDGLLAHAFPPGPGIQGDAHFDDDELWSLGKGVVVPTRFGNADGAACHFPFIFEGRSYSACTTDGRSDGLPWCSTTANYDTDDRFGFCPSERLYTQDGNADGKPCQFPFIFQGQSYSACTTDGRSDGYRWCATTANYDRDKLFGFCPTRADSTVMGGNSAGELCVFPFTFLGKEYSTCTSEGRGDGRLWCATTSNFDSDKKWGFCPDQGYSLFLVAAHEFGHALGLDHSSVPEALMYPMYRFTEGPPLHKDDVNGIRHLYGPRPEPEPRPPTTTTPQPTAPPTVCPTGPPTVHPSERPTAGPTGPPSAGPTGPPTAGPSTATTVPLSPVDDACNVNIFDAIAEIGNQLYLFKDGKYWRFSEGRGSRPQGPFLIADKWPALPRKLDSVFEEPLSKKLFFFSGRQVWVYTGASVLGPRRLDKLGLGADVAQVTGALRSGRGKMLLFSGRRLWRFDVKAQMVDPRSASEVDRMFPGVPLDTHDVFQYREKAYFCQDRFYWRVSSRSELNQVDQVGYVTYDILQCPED

SMILES | Kd [1] [µM] | Kd [2] [µM] | IC50 [3] [µM] | Kd [4] [µM]
COc1ccc(C#N)cc1Nc1nc(-c2sc(C)nc2C)cs1 [Example 39, 3-(2′,4′-Dimethyl-[4,5′]bithiazolyl-2-ylamino)-4-methoxy-benzonitrile.TFA] | 1.1 | 1.4 | 0.76 | > 95
COc1ccc(C(N)=O)cc1Nc1nc(-c2sc(N)nc2C)cs1 [Example 5, 3-(2′-Amino-4′-methyl-[4,5′]bithiazolyl-2-ylamino)-4-methoxy-benzamide.HBr] | 0.27 | 0.56 | 0.85 | 4.9
C=Cc1ccc(OC)c(Nc2nc(-c3sc(C)nc3C)cs2)c1 [Example 140, (2′,4′-Dimethyl-[4,5′]bithiazolyl-2-yl)-(2-methoxy-5-vinyl-phenyl)-amine] | > 95 | 45 | 5.5 | 26
COc1ccc(-c2nccs2)cc1Nc1nc(-c2sc(C)nc2C)cs1 [Example 142, (2′,4′-Dimethyl-[4,5′]bithiazolyl-2-yl)-(2-methoxy-5-thiazol-2-yl-phenyl)-amine.TFA] | > 95 | 58 | 11 | 6.7
Cc1nc(N2CCN(C)CC2)sc1-c1csc(Nc2cc(S(N)(=O)=O)ccc2OC(C)C)n1 [Example 61, 4-Isopropoxy-3-[4′-methyl-2′-(4-methyl-piperazin-1-yl)-[4,5′]bithiazolyl-2-ylamino]-benzenesulfonamide.TFA] | 0.069 | 0.14 | 0.38 | 0.11
COc1ccc(S(N)(=O)=O)cc1Nc1nc(-c2sc(C)nc2C)cs1 [Example 54, 3-(2′,4′-Dimethyl-[4,5′]bithiazolyl-2-ylamino)-4-methoxy-benzenesulfonamide.TFA] | 1 | 1.6 | 3.4 | 2
Cc1nc(C)c(-c2nc(Nc3cc(S(N)(=O)=O)ccc3OC(C)C)sc2F)s1 [Example 62, 3-(5-Fluoro-2′,4′-dimethyl-[4,5′]bithiazolyl-2-ylamino)-4-isopropoxy-benzenesulfonamide.TFA] | 0.3 | 0.67 | 1.5 | 0.16
CC(=O)Nc1nc(C)c(-c2csc(Nc3cc(S(N)(=O)=O)ccc3OC(C)C)n2)s1 [Example 63, N-[2-(2-Isopropoxy-5-sulfamoyl-phenylamino)-4′-methyl-[4,5′]bithiazolyl-2′-yl]-acetamide.TFA] | 0.52 | 0.79 | 0.75 | 1.3
CCOc1ccc(C(N)=O)cc1Nc1nc(-c2sc(C(=O)N(C)CCN(C)C)nc2C)cs1 [Example 123, 2-(5-Carbamoyl-2-ethoxy-phenylamino)-4′-methyl-[4,5′]bithiazolyl-2′-carboxylic acid (2-dimethylamino-ethyl)-methyl-amide.TFA] | 0.28 | 1 | 0.44 | 1.8
COc1ccc(C(N)=O)cc1Nc1nc(-c2sc(N)nc2C(F)(F)F)cs1 [Example 87, 3-(2′-Amino-4′-trifluoromethyl-[4,5′]bithiazolyl-2-ylamino)-4-methoxy-benzamide.TFA] | 0.4 | 0.38 | 1.2 | 3
Cc1nc(C)c(-c2nc(Nc3cc(C(N)=O)ccc3OC(C)C)sc2Br)s1 [Example 4, 3-(5-Bromo-2′,4′-dimethyl-[4,5′]bithiazolyl-2-ylamino)-4-isopropoxy-benzamide] | 1.2 | 3.1 | 9 | 3.2
Cc1nc(C)c(-c2csc(Nc3cc(S(N)(=O)=O)ccc3OC(F)(F)F)n2)s1 [Example 144, 3-(2′,4′-Dimethyl-[4,5′]bithiazolyl-2-ylamino)-4-trifluoromethoxy-benzenesulfonamide.HCl] | 1 | 2 | 1.6 | 3.6
Cc1nc(C)c(-c2csc(Nc3cc(S(C)(=O)=O)ccc3OC(C)C)n2)s1 [Example 45, (2′,4′-Dimethyl-[4,5′]bithiazolyl-2-yl)-(2-isopropoxy-5-methanesulfonyl-phenyl)-amine.TFA] | 0.24 | 0.98 | 0.83 | 0.2
Cc1nc(C)c(-c2csc(Nc3cc(C(N)=O)ccc3OC3CCCC3)n2)s1 [Example 15, 4-Cyclopentyloxy-3-(2′,4′-dimethyl-[4,5′]bithiazolyl-2-ylamino)-benzamide] | 7.9 | > 95 | > 20 | 13

Further lines, results first:

Kd [1] [µM] | Kd [2] [µM] | IC50 [3] [µM] | Kd [4] [µM] | SMILES
1.4 | 1.2 | 1.1 | 5.5 | CCOc1ccc(C(=O)O)cc1Nc1nc(-c2sc(N)nc2C)cs1 [Example 46, 3-(2′-Amino-4′-methyl-[4,5′]bithiazolyl-2-ylamino)-4-ethoxy-benzoic acid.HBr]
0.29 | 1.1 | 0.17 | 0.51 | Cc1nc(C(=O)N2CCN(C)CC2)sc1-c1csc(Nc2cc(C(N)=O)ccc2OC(C)C)n1 [Example 101, 4-Isopropoxy-3-[4′-methyl-2′-(4-methyl-piperazine-1-carbonyl)-[4,5′]bithiazolyl-2-ylamino]-benzamide.TFA]
1.3 | 2.6 | 4.1 | 2.6 | CCS(=O)(=O)c1ccc(OC)c(Nc2nc(-c3sc(C)nc3C)cs2)c1 [Example 50, (2′,4′-Dimethyl-[4,5′]bithiazolyl-2-yl)-(5-ethanesulfonyl-2-methoxy-phenyl)-amine.TFA]
0.34 | 0.84 | 0.69 | 14 | COc1ccc(C(N)=O)cc1Nc1nc(-c2sc(C)nc2C)cs1 [Example 18, 3-(2′,4′-Dimethyl-[4,5′]bithiazolyl-2-ylamino)-4-methoxy-benzamide.HBr]
1.4 | 2.2 | 0.52 | > 57 | Cc1nc(C(=O)N2CCCN(C(C)C)CC2)sc1-c1csc(Nc2cc(C(N)=O)ccc2OC(C)C)n1 [Example 112, 4-Isopropoxy-3-[2′-(4-isopropyl-[1,4]diazepane-1-carbonyl)-4′-methyl-[4,5]bithiazolyl-2-ylamino]-benzamide.TFA]
0.73 | 3.5 | 0.65 | 8.6 | Cc1nc(CN2CCC(O)CC2)sc1-c1csc(Nc2cc(C(N)=O)ccc2OC(C)C)n1 [Example 127, 3-[2′-(4-Hydroxy-piperidin-1-ylmethyl)-4′-methyl-[4,5′]bithiazolyl-2-ylamino]-4-isopropoxy-benzamide.TFA]
0.1 | 0.65 | 0.38 | 0.95 | Cc1nc(N(C)C)sc1-c1csc(Nc2cc(C(N)=O)ccc2OC(C)C)n1 [Example 88, 3-(2′-Dimethylamino-4′-methyl-[4,5′]bithiazolyl-2-ylamino)-4-isopropoxy-benzamide.TFA]
0.32 | 0.55 | 0.097 | 8.4 | COc1ccc([N+](=O)[O-])cc1Nc1nc(-c2sc(NC(C)=O)nc2C)cs1 [Example 68, N-[2-(2-Methoxy-5-nitro-phenylamino)-4′-methyl-[4,5′]bithiazolyl-2′-yl]-acetamide.TFA]
1.8 | 0.68 | 0.31 | 2.4 | CCOc1ccc(C(=O)O)cc1Nc1nc(-c2sc(C)nc2C)cs1 [Example 47, 3-(2′,4′-Dimethyl-[4,5′]bithiazolyl-2-ylamino)-4-ethoxy-benzoic acid.HBr]

From patent US20120129842A1, “BISTHIAZOLE INHIBITORS OF PRO-MATRIX METALLOPROTEINASE ACTIVATION” (priority 2010, published 2012)
